The record followed here is PMC9182199, “Borylated 2,3,4,5-Tetrachlorophthalimide and Their 2,3,4,5-Tetrachlorobenzamide Analogues: Synthesis, Their Glycosidase Inhibition and Anticancer Properties in View to Boron Neutron Capture Therapy” (Molecules, 2022).

For one test, the system named is H460. In words: MTT cell growth inhibition: H460. The class given is cell-based. Particulars: H460 lung carcinoma; for inhibition at 25 µM / GI50: Homo sapiens; for inhibition at 25 µM: NCI-H460, read-out: Percentage (%) Cell Growth Inhibition in response to 25 µM of Drug; for inhibition at 25 µM / Percentage (%) Cell Growth Inhibition in response to 25 µM of Drug: 72 h, MTT; for GI50: NCI-H460, read-out: GI50 = Concentration (µM) that inhibits cell growth by 50%, dose response. The procedure: All test agents were prepared as stock solutions (20 mM) in dimethyl sulfoxide (DMSO) and stored at −20 °C. Cell lines used in the study included HT29 (colorectal carcinoma); U87, SJ-G2, (glioblastoma); MCF-7, (breast carcinoma); A2780 (ovarian carcinoma); H460 (lung carcinoma); A431 (skin carcinoma); Du145 (prostate carcinoma); BE2-C (neuroblastoma); MiaPaCa-2 (pancreatic carcinoma); and SMA560 (spontaneous murine astrocytoma), together with the one non-tumour-derived normal breast cell line (MCF10A). All cell lines were incubated in a humidified atmosphere 5% CO2 at 37 °C. The cancer cell lines were maintained in Dulbecco’s modified Eagle’s medium (DMEM; Sigma, Australia) supplemented with foetal bovine serum (10%), sodium pyruvate (10 mM), penicillin (100 IUmL^−1), streptomycin (100 µg mL^−1) and L-glutamine (2 mM).
Growth inhibition was determined by plating cells in duplicate in medium (100 µL) at a density of 2500–4000 cells per well in 96-well plates. On day 0 (24 h after plating), when the cells were in logarithmic growth, medium (100 µL) with or without the test agent was added to each well. After 72 h drug exposure, growth inhibitory effects were evaluated using the MTT (3-(4,5-dimethyltiazol-2-yl)-2,5-diphenyltetrazolium bromide) assay and absorbance read at 540 nm. The percentage growth inhibition was calculated at a fixed concentration of 25 µM, based on the difference between the optical density values on day 0 and those at the end of drug exposure. Each data point is the mean ± the standard error of the mean (SEM) calculated from three replicates which were performed on separate occasions and separate cell line passages.

The subject of another test is snail β-mannosidase. In words: Glycosidase inhibition, laboratory 1: snail β-mannosidase. The class given is biochemical. The note with it: methanol. The source says:
(§1) The enzymes α-glucosidase (from yeast), β-glucosidases (from almond and bovine liver), α-galactosidase (from coffee beans), β-galactosidase (from bovine liver), α-mannosidase (from Jack bean), β-mannosidase (from snail), α-L-rhamnosidase (from Penicillium decumbens), α-L-fucosidase (from bovine kidney), trehalase (from porcine kidney), β-glucuronidases (from E. coli and bovine liver), amyloglucosidase (from A. niger), para-nitrophenyl glycosides, and various disaccharides were purchased from Sigma-Aldrich Co (St Louis, MO, USA).
(§2) Brush border membranes were prepared from the rat small intestine according to the method of Kessler et al. and were assayed at pH 6.8 for rat intestinal maltase using maltose. For rat intestinal maltase, porcine kidney trehalase, and A. niger amyloglucosidase activities, the reaction mixture contained 25 mM maltose and the appropriate amount of enzyme, and the incubations were performed for 10–30 min at 37 °C. The reaction was stopped by heating at 100 °C for 3 min. After centrifugation (600× g; 10 min), the resulting reaction mixture was added to the Glucose CII-test Wako (Wako Pure Chemical Ind., Osaka, Japan). The absorbance at 505 nm was measured to determine the amount of the released D-glucose. Other glycosidase activities were determined using an appropriate para-nitrophenyl glycoside as substrate at the optimum pH of each enzyme. The reaction mixture contained 2 mM of the substrate and the appropriate amount of enzyme. The reaction was stopped by addition of 400 mM Na2CO3. The released para-nitrophenol was measured spectrometrically at 400 nm. All reactions run in methanol.

Another test concerns the target T1, E. coli β-glucuronidase (Escherichia coli, UniProt P05804).
T1 construct: purchased Sigma-Aldrich Co
In words: Glycosidase inhibition, laboratory 1: E. coli β-glucuronidase. The note with it: for inhibition at 10 µM: read-out: inhibition % at 10 μM; for inhibition at 100 µM: read-out: inhibition % at 100 μM. The class given is biochemical.
From the text: as §1, §2

Another test concerns the target T2, Jack bean α-mannosidase (Canavalia ensiformis, UniProt C0HJB3).
T2 construct: purchased Sigma-Aldrich Co
T2 sequence (C0HJB3 1-981): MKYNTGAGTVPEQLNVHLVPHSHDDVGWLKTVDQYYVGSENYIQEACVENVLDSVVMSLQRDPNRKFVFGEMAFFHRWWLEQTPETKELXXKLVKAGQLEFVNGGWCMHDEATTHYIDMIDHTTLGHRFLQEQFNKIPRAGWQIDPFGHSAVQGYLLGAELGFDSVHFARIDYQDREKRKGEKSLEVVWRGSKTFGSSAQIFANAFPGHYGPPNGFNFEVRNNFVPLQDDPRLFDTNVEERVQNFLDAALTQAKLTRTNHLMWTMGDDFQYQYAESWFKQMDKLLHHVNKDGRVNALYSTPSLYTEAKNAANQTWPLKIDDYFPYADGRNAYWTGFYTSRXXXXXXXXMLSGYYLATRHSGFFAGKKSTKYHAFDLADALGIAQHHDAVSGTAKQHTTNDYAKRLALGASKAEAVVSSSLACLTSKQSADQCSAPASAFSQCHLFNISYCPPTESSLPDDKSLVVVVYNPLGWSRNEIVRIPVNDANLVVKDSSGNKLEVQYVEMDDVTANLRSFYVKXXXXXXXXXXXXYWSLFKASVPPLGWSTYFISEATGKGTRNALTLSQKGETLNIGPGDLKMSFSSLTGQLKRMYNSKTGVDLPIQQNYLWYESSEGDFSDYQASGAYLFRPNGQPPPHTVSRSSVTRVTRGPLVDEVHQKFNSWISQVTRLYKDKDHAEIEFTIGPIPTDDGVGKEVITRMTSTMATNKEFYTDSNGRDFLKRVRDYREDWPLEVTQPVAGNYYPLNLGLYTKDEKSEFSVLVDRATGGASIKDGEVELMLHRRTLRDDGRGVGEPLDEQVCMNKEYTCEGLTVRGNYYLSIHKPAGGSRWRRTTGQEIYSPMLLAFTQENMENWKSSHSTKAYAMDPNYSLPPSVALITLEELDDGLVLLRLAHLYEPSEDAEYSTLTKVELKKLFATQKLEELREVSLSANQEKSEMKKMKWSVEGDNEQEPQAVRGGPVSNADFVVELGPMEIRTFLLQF
In words: Glycosidase inhibition, laboratory 1: Jack bean α-mannosidase. The class given is biochemical. Particulars: methanol.
From the text: as §1, §2

Test [1] addresses T3, coffee beans α-galactosidase (Coffea arabica, UniProt Q42656).
T3 construct: purchased Sigma-Aldrich Co
In words: Glycosidase inhibition, laboratory 1: coffee beans α-galactosidase. Format: biochemical. The note with it: methanol.
From the text: as §1, §2

Test [2] has as its target T4, bovine kidney α-L-fucosidase (Bos taurus, UniProt Q2KIM0).
T4 construct: purchased Sigma-Aldrich Co
T4 sequence (Q2KIM0 23-468): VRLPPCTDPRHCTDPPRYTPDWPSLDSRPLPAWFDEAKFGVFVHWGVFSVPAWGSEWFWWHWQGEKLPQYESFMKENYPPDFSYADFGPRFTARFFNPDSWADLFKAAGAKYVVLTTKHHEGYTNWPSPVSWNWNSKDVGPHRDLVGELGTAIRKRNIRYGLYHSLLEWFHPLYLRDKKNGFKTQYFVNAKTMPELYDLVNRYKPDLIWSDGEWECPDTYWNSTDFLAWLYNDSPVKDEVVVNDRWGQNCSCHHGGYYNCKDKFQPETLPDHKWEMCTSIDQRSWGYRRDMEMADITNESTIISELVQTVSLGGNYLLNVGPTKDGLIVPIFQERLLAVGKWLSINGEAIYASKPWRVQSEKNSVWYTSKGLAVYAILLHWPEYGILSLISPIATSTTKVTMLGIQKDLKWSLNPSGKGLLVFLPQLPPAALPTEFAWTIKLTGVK
In words: Glycosidase inhibition, laboratory 1: α-L-fucosidase. The class given is biochemical. Particulars: methanol.
From the text: as §1, §2

Where [3] appears, read: E. coli β-glucuronidase, 100 μM, methanol.

Where two headings read alike, the source gives them in different places.

T1 sequence (P05804 whole entry): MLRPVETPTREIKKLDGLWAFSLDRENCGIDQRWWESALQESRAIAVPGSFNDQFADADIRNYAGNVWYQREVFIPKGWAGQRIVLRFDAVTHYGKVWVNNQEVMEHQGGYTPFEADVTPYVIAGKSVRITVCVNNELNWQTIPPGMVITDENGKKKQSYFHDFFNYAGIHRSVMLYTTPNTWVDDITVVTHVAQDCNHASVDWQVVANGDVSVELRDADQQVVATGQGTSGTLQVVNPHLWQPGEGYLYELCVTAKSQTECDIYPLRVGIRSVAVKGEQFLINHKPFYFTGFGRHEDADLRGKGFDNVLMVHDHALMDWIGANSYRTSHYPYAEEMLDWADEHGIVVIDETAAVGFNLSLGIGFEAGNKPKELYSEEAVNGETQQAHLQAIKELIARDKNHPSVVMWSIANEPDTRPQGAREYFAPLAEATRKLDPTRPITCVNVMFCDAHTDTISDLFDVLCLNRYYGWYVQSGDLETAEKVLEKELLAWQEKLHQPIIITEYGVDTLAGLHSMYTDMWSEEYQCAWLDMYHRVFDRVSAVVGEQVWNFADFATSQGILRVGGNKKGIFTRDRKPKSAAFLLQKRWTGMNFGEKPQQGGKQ
T3 sequence (Q42656 16-378): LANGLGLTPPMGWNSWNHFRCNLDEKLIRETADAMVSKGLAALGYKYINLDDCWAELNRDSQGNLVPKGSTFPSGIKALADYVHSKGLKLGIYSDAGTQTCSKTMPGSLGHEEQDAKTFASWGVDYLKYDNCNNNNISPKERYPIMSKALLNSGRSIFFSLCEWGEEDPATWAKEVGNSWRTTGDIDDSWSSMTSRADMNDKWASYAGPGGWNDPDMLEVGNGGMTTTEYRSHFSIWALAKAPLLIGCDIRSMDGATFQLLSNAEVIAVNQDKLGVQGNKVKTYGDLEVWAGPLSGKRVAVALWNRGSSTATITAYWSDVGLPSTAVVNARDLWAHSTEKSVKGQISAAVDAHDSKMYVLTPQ

As usually defined, the inhibition is the change of the read-out against control, counted positive when it falls. In the case of `N[C@@H](Cc1ccc(B(O)O)cc1)C(=O)O` [BPA, 4-borono-L-phenylalanine, reference compound], the inhibition at 25 µM with H460 turned out to be 7 ± 8%. In addition, in the test on snail β-mannosidase, the “inhibition % at 100 μM” value is “^cNI ^d (2.1%)”.
As for `N[C@@H](Cc1ccc(B(O)O)cc1)C(=O)O` [^10B-BPA, reference compound], the “inhibition % at 100 μM” value on E. coli β-glucuronidase (setting [3]) is listed as “^cNI ^d (2.4%)”; against Jack bean α-mannosidase (100 μM), “^cNI ^d (0%)”; in test [1] (100 μM) it was “^cNI ^d (1.2%)”; in test [2] (100 μM), “^cNI ^d (0%)”; in the test on snail β-mannosidase it was “^cNI ^d (0.3%)”. The “Percentage (%) Cell Growth Inhibition in response to 25 µM of Drug” value in the test on H460 is 8 ± 5%.
As for `CC1(C)OB(c2cccc(CN3C(=O)c4c(Cl)c(Cl)c(Cl)c(Cl)c4C3=O)c2)OC1(C)C` [meta 3, 4,5,6,7-Tetrachloro-2-(3-(4,4,5,5-tetramethyl-1,3,2-dioxaborolan-2-yl)benzyl)isoindoline-1,3-dione], the inhibition at 10 µM worked out at 6.1% on E. coli β-glucuronidase, 2.7% against Jack bean α-mannosidase, 3.5% in test [1] and 4.7% in test [2]. Also, the GI50 in the test with H460 came out at 33 ± 2.3 µM. Further, in the test with H460, the inhibition at 25 µM amounted to 42 ± 6%. In the test with snail β-mannosidase, the “inhibition % at 10 μM” value was “^cNI ^d (1.1%)”.
The IC50 is the concentration that gives 50% inhibition. The compound `CC1(C)OB(c2cccc(NC(=O)c3cc(Cl)c(Cl)c(Cl)c3Cl)c2)OC1(C)C` [meta 5, 2,3,4,5-tetrachloro-N-(3-(4,4,5,5-tetramethyl-1,3,2-dioxaborolan-2-yl)phenyl)benzamide] yielded a half-inhibitory concentration (IC50) on E. coli β-glucuronidase (E. coli β-glucuronidase, methanol) of 932 µM. The inhibition at 100 µM against Jack bean α-mannosidase (100 μM) is 7.6%; in test [1] (100 μM) it was 30.2%; in test [2] (100 μM), 3.3%. Further, in the test on H460, the inhibition at 25 µM amounted to 18 ± 6%. Further, the “inhibition % at 100 μM” value with snail β-mannosidase is on record as “^aNI ^b (39.1%)”.
In the case of `CC1(C)OB(c2ccccc2NC(=O)c2cc(Cl)c(Cl)c(Cl)c2Cl)OC1(C)C` [ortho 5, 2,3,4,5-Tetrachloro-N-(2-(4,4,5,5-tetramethyl-1,3,2-dioxaborolan-2-yl)phenyl)benzamide], the inhibition at 10 µM on E. coli β-glucuronidase (E. coli β-glucuronidase, 10 μM, methanol) came to 3.8%; against Jack bean α-mannosidase, 3.4%; in test [1], 0%; in test [2], 0%. Further, the GI50 with H460 amounted to 13 ± 1 µM. Further, in the test on H460, the inhibition at 25 µM was above 100%. For the same compound, the “inhibition % at 10 μM” value with snail β-mannosidase was “^cNI ^d (0%)”.
Consider `CC1(C)OB(c2ccccc2CNC(=O)c2cc(Cl)c(Cl)c(Cl)c2Cl)OC1(C)C` [ortho 8, 2,3,4,5-tetrachloro-N-(2-(4,4,5,5-tetramethyl-1,3,2-dioxaborolan-2-yl)benzyl)benzamide], for which the inhibition at 100 µM on E. coli β-glucuronidase was found to be 41.7%; on Jack bean α-mannosidase (100 μM), 12.5%; in test [1] (100 μM), 114%; in test [2] (100 μM), 19.9%. Also, the inhibition at 25 µM in the test on H460 was 0%. In the test on snail β-mannosidase, the “inhibition % at 100 μM” value is recorded as “^aNI ^b (39%)”.
As to `CC1(C)OB(c2ccc(CN3C(=O)c4c(Cl)c(Cl)c(Cl)c(Cl)c4C3=O)cc2)OC1(C)C` [para 3, 4,5,6,7-Tetrachloro-2-(4-(4,4,5,5-tetramethyl-1,3,2-dioxaborolan-2-yl)benzyl)isoindoline-1,3-dione], the inhibition at 100 µM at E. coli β-glucuronidase stood at 2.2%; at Jack bean α-mannosidase (100 μM), 0%; in test [1] (100 μM) it was 0.2%; in test [2] (100 μM), 0%. Besides, the GI50 in the test on H460 worked out at 13 ± 0.33 µM. The inhibition at 25 µM in the test on H460 was found to be 100 ± 2%. For the same compound, the “inhibition % at 100 μM” value in the test on snail β-mannosidase was “^aNI ^b (0%)”.
Regarding `CC1(C)OB(c2ccc(NC(=O)c3cc(Cl)c(Cl)c(Cl)c3Cl)cc2)OC1(C)C` [para 5, 2,3,4,5-tetrachloro-N-(4-(4,4,5,5-tetramethyl-1,3,2-dioxaborolan-2-yl)phenyl)benzamide], the inhibition at 100 µM on E. coli β-glucuronidase (setting [3]) was 45.5%; against Jack bean α-mannosidase (100 μM), 19.3%; in test [1] (100 μM), 35.8%; in test [2] (100 μM) it was 5.1%. Further, the inhibition at 25 µM with H460 was 54 ± 2%. The “inhibition % at 100 μM” value with snail β-mannosidase is “^aNI ^b (30.4%)”.
“Borocaptate sodium [BSH, reference compound]”: the “inhibition % at 1000 μM” value against E. coli β-glucuronidase (E. coli β-glucuronidase, 1000 μM, methanol) is “^aNI ^b (6%)”; at Jack bean α-mannosidase (1000 μM) it was “^aNI ^b (7.9%)”; in test [1] (1000 μM), “^aNI ^b (12.3%)”; in test [2] (1000 μM), “^aNI ^b (0%)”; in the test with snail β-mannosidase (1000 μM) it was “^aNI ^b (19.2%)”. In the test with H460, the “Percentage (%) Cell Growth Inhibition in response to 25 µM of Drug” value came to 8 ± 2%.
